The values that follow come from patent US20060111324A1, “(+)-Ttrans-isomers of (1-phosphonomethoxy-2-alkylcyclopropyl)methyl nucleoside derivatives, process for the preparation of stereoisomers thereof, and use of antiviral agents thereof” (LG Life Sciences, priority 2002, published 2006).

Like-named read-outs stand apart in the source and are kept apart here.

Series [1] can be described thus: Determination of cytotoxicity (MTT) in HepG2.2.15 cells. Particulars: human.
In series [2] the test system is Hepatitis B Virus (HBV). Kind of series: Inhibition of hepatitis B virus replication in HepG2.2.15 cells, quantitative PCR of culture medium. It counts as cell-based. As to conditions: for pharmaceutical activity as an antiviral agent (in words): comparison among the compounds of Table 2.
The test system of series [3] is HepG2.2.15 cell. Briefly: Determination of cytotoxicity (MTT) in HepG2.2.15 cells. Particulars: read-out: CC50 (μM) in HepG2.2.15; MTT, 10th day of drug treatment.
Series [4] relates to HBV. Briefly: Pharmacological test on HBV transgenic mouse (serum HBV DNA by PCR). It counts as in vivo. As to conditions: for Result: number of mice showing pharmacological effect / number of total mice: effect = blood does not contain HBV DNA.
The subject of series [5] is HepG2.2.15 cell.
Setting [6] is: Hepatitis B virus, 240 h, HepG2.2.15 cells, 10 days drug treatment, HBV DNA in medium by PCR.

On to `C[C@@H]1C[C@]1(Cn1cnc2c(Sc3ccc([N+](=O)[O-])cc3)nc(N)nc21)OCP(=O)(O)O` (relative stereo) [Compound 44, [{(+)-cis-1-({2-amino-6-[(4-nitrophenyl)sulfanyl]-9H-purine-9-yl}methyl)-2-methylcyclopropyl}oxy]methylphosphonic acid], for which the CC50 at 10 days in series [1] is greater than 1000 µM. The EC50 in series [2] (setting [6]) was greater than 40 µM.

Turning to `CC1CC1(Cn1cnc2c(O)nc(N)nc21)OCP(=O)(O)O` (single isomer, unassigned) [Compound 36, {(−)-trans-1-[(2-amino-6-hydroxy-9H-purine-9-yl)methyl]-2-methylcyclopropyl}oxy)methylphosphonic acid], in series [3], the CC50 is greater than 1000 µM. In addition, the EC50 in series [2] (HepG2.2.15 cells, 10 days drug treatment, HBV DNA in medium by PCR) was greater than 10 µM.

As for `CCC1CC1(Cn1cnc2c(O)nc(N)nc21)OCP(=O)(O)O` (single isomer, unassigned) [Compound 37, ({(−)-trans-1-1(2-amino-6-hydroxy-9H-purine-9-yl)methyl]-2-ethylcyclopropyl}oxy)methylphosphonic acid], in series [1], the CC50 at 10 days was greater than 1000 µM. Besides, the EC50 in series [2] (setting [6]) was greater than 40 µM.

Compound `C[C@@H]1C[C@]1(Cn1cnc2c(O)nc(N)nc21)OCP(=O)(O)O` (single isomer, unassigned) [Compound 38, ({(+)-cis-1-[(2-amino-6-hydroxy-9H-purine-9-yl)methyl]-2-methylcyclopropyl}oxy)methylphosphonic acid] registered a CC50 at 10 days in series [1] greater than 1000 µM. Also, in series [2] (setting [6]), the EC50 was greater than 10 µM.

The compound `C[C@H]1C[C@]1(Cn1cnc2c(O)nc(N)nc21)OCP(=O)(O)O` [Compound 1, (((1S,2S)-1-[(2-amino-6-hydroxy-9H-purine-9-yl)methyl]-2-methylcyclopropyl}oxy)methylphosphonic acid] showed a CC50 at 10 days in series [1] greater than 1000 µM. Besides, the EC50 in series [2] (setting [6]) is 0.03 µM. In addition, in series [2], the “pharmaceutical activity as an antiviral agent (in words)” value is “most excellent pharmaceutical activity”.

For the compound `C[C@H]1C[C@]1(Cn1cnc2cnc(N)nc21)OCP(=O)(O)O` [Compound 2, ({(1S,2S)-1-[(2-amino-9H-purine-9-yl)methyl]-2-methylcyclopropyl}oxy)methylphosphonic acid], in series [4] (subcutaneous, 10 mg/kg/day), the “Result: number of mice showing pharmacological effect / number of total mice” value is given as 4/4. The same compound showed a CC50 at 10 days in series [1] greater than 1000 µM. For the same compound, in series [2] (setting [6]), the EC50 worked out at 1 µM.

As to `CC1CC1(Cn1cnc2cnc(N)nc21)OCP(=O)(OCOC(=O)C(C)(C)C)OCOC(=O)C(C)(C)C` [Compound 6, (1S,2S)-3-[({1-[(2-amino-9H-purine-9-yl)methyl]-2-methylcyclopropyl}oxy)methyl]-8,8-dimethyl-3,7-dioxo-2,4,6-trioxa-3λ^5-phosphanon-1-yl-pivalate], the “Result: number of mice showing pharmacological effect / number of total mice” value in series [4] (oral, 1 mg/kg/day) is given as 5/5.

In the case of `CC(C)OC(=O)OCOP(=O)(COC1(Cn2cnc3cnc(N)nc32)CC1C)OCOC(=O)OC(C)C` [Compound 7, (1S,2S)-bis {[(isopropoxycarbonyl)oxy]methyl}({1-[(2-amino-9H-purine-9-yl)methyl]-2-methylcyclopropyl}oxy)methylphosphonate], the “pharmacological effect (in words)” value in series [4] (HBV transgenic mice, orally administrated at 1 mpk or less) is “very excellent pharmacological effect”. The “Result: number of mice showing pharmacological effect / number of total mice” value in series [4] (oral, 1 mg/kg/day) is given as 5/5.

With `COc1ccc(Sc2nc(N)nc3c2ncn3CC2(OCP(=O)(OCOC(=O)C(C)(C)C)OCOC(=O)C(C)(C)C)CC2C)cc1` [Compound 8, (1S,2S)-3-{[(1-{[2-amino-6-(4-methoxyphenylthio)-9H-purine-9-yl]methyl}-2-methylcyclopropyl)oxy]methyl}-8,8-dimethyl-3,7-dioxo-2,4,6-trioxa-3λ^5-phospanon-1-yl-pivalate], the “Result: number of mice showing pharmacological effect / number of total mice” value in series [4] (oral, 1 mg/kg/day) is given as 2/5.

`CC[C@H]1C[C@]1(Cn1cnc2c(O)nc(N)nc21)OCP(=O)(O)O` [Compound 12, ({(1S,2S)-1-[(2-amino-6-hydroxy-9H-purine-9-yl)methyl]-2-ethylcyclopropyl}oxy)methylphosphonic acid] came in with a CC50 at 10 days in series [1] greater than 1000 µM. Also, in series [2] (setting [6]), the EC50 came out at 0.03 µM. Besides, the “pharmaceutical activity as an antiviral agent (in words)” value in series [2] is given as “most excellent pharmaceutical activity”.

In series [1], `CCC1CC1(Cn1cnc2cnc(N)nc21)OCP(=O)(O)O` [Compound 13, ({(1S,^2S)-1-[(2-amino-9H-purine-9-yl)methyl]-2-ethylcyclopropyl}oxy)methylphosphonic acid] yielded a CC50 at 10 days greater than 1000 µM. In addition, the EC50 in series [2] (setting [6]) was greater than 10 µM.

`CC1CC1(Cn1cnc2c(N)ncnc21)OCP(=O)(O)O` (stereo not drawn) [Compound 45, ({[(+)-cis-[1-(6-amino-9H-purine-9-yl)methyl]-2-methylcyclopropyl}oxylmethylphosphonic acid] came in with a CC50 at 10 days in series [1] greater than 1000 µM. This compound registered an EC50 in series [2] (setting [6]) greater than 40 µM.

“({(±)-trans-1-[(2-amino-6-hydroxy-9H-purine-9-yl)methyl]-2-propylcyclopropyl}oxy)methylphosphonic acid [Compound 40]”: the CC50 in series [5] was greater than 1000 µM. Further, the EC50 in series [2] was 1.2 µM.

“({(±)-trans-1-[(2-amino-9H-purine-9-yl)methyl]-2-propylcyclopropyl}oxy)methylphosphonic acid [Compound 39]” showed a CC50 in series [5] greater than 1000 µM. For the same compound, the EC50 in series [2] was greater than 40 µM.

Compound “({(±)-trans-1-[(6-amino-9H-purine-9-yl)methyl]-2-propylcyclopropyl}oxy)methylphosphonic acid [Compound 41]” had a CC50 in series [5] greater than 1000 µM. The EC50 in series [2] was greater than 30 µM.

As to “[{(±)-trans-1-({2-amino-6-[(4-methoxyphenyl)sulfanyl]-9H-purine-9-yl}methyl)-2-ethylcyclopropyl }oxy]methylphosphonic acid [Compound 43]”, in series [5], the CC50 is greater than 1000 µM. Besides, in series [2], the EC50 was greater than 0.2 µM.

The CC50 is the concentration that lowers cell viability or growth by half. As usually defined, the EC50 is the concentration that produces a half-maximal response. High values mean a less potent agent, low ones a more potent agent.
